Several values for one entry are separate records, joined by “and”; a condition that tells them apart may be missing. Equal values may be shown once.
Legend:
[1] = system: KPMM2, a human myeloma cell line; assay: Human myeloma cell-implanted SCID mouse system (Example 2): survival, disease-free ratio, serum M protein; format: in vivo; conditions: for Survival period: mean ± standard error; for Life-elongation ratio* (%): 100 × (drug administration group/drug non-administration group); for None disease ratio: survival ratio without disease on day 120
Text: For evaluation of antitumor activity, a xenograft model was used. Thus, KPMM2, a human myeloma cell line derived from ascites of a patient with multiple myeloma was implanted to a male SCID mouse (FOX CHASE C. B17/Icr-Scid Jcl, purchased from Nippon Klea) via the tail vein. At this time, the tumor cells grow in the bone marrow and come to produce myeloma protein (M protein) in the peripheral blood. Furthermore, this model system is very close to an actual clinical condition in that it develops major symptoms of multiple myeloma in humans such as bone disorders, elevated blood calcium, and the like.
Single cell suspension of myeloma cells for implantation was prepared by passing through a mesh the well minced KPMM2 cells that have been maintained in vivo. Cell density was adjusted to 3×10^7/ml, which was implanted at 0.2 ml per mouse via the tail vein ([…]). The day when the cells were implanted was set at day 0.
This was given to mice at 0.2 ml per animal via the tail vein on day 8 (1 mg per mouse).
Melphalan (L-PAM, manufactured by Sigma Chemical Co.) that was suspended at 0.3 or 0.1 mg/ml in 0.2% CMC (carboxymethylcellulose) solution in water was used. This was given orally at 0.1 ml per 10 g body weight of mouse (3 or 1 mg/kg weight) for 5 consecutive days starting on day 1.
The experiment was carried out on the following six groups: (1) the melphalan and antibody non-administration group; (2) the 1 mg/kg melphalan single-drug administration group; (3) the 3 mg/kg melphalan single-drug administration group; (4) antibody single-drug administration group; (5) the 1 mg/kg melphalan and antibody combined administration group; and (6) the 3 mg/kg melphalan and antibody combined administration group. Group 1 included 9 mice, whereas each of the other groups included 7 mice. Furthermore, tumor was not implanted on mice of the same lineage and purchased on the same day, which were used as negative control for M protein detection.
Indices of the drug efficacy included the survival period, the survival ratio without disease on day 120, and the amount of M protein on day 30. For analysis using a survival curve, a generalized Wilcoxon's test (SPSS for windows ver. 6, SPSS inc.) was used. A significance level of 5% or lower was considered to be significant.
Serum M protein was detected as human IgG using the ELISA method. First, mouse serum was dispensed into a 96-well micro plate that had previously been coated with anti-human IgG antiserum and was allowed to stand. Then alkaline phosphatase-conjugated […] was bound thereto, and SIGMA104 phosphatase substrate was added for color development, absorbance of which was read using a microplate reader. M protein content in the serum was calculated using the standard curve obtained from normal human IgG.

KPMM2 cells = system: KPMM2 cells
Protocol: The effects of anti-human IL-6 receptor antibody on sensitivity of KPMM2 cells to chemotherapeutic agents used for treatment of myeloma such as adriamycin (ADR, manufactured by Kyowa Hakko), vincristine (VCR, manufactured by Sigma Chemical Co.), and melphalan (L-PAM, manufactured by Sigma Chemical Co.) were evaluated.
KPMM2 is a multiple myeloma cell line derived from the ascites of a human patient with myeloma (see Japanese Unexamined Patent Publication (Kokai) No. 7-236475). […] The growth activity of the cell was evaluated by incorporation of ^3H-labeled thymidine (manufactured by Amersham) into the cell.
The KPMM2 cells that had been maintained were washed thoroughly with a fresh medium (RPMI1640 medium supplemented with 20% FBS), and then were adjusted to 4×10^5/ml, which was dispensed in 50 μl aliquots in a 96-well flat-bottomed microtiter plate (manufactured by Falcon). Furthermore, a medium containing a recombinant human IL-6 (Asagoe, Y. et al., Bio/Technology (1988) 6, 806-809), anti-human IL-6 receptor antibody hPM-1 (see the above reference example 1 or International Patent Application WO 92-15759), and the above chemotherapeutic agents or a fresh medium as control were added to make 200 μl in each well.
The plate was incubated at 37° C. for 4 days under the humidified condition in the presence of 5% CO2. At four hours before the end of incubation, 10 μl of ^3H-labeled thymidine solution (100 μCi/ml) was added to each well, and then incubated for more 4 hours. At the end of incubation, the cells were collected onto the glass filter (manufactured by Printed Filtermat A, WALLAC) using a harvester (Micro 96 Harvester, manufactured by SKATRON Instruments). The radioactivity incorporated into the cells was measured by a microbeta (1450 MicroBeta, manufactured by WALLAC).
The activity of growth inhibition on KPMM2 was expressed using the effect by a chemotherapeutic agent alone as the control. Using the incorporation of ^3H-labeled thymidine into the cell for each experimental group in which a each concentration of a chemotherapeutic agent was added as 100, the amount of ^3H-labeled thymidine incorporated into the cell in an experimental group in which anti-human IL-6 receptor antibody was simultaneously added was compared as an index.

[2] = melphalan 1 mg/kg orally, 5 days from day 1, no antibody
[3] = melphalan 3 mg/kg orally, 5 days from day 1, no antibody
[4] = hPM-1 1 mg per mouse via the tail vein on day 8, CMC control

Row | Compound | life elongation effect as compared to the non-administration group ([1]; 1 mg/ml melphalan administration group (FIG. 7)) | life elongation effect as compared to the non-administration group ([1]; 3 mg/kg melphalan single-drug administration (FIG. 9)) | Survival period ([1]; melphalan 1 mg/kg orally, 5 consecutive days from day 1, no antibody) | Life-elongation ratio* (%) [1, 2] [%] | Survival period ([1]; melphalan 3 mg/kg orally, 5 consecutive days from day 1, no antibody) | Life-elongation ratio* (%) [1, 3] [%] | None disease ratio [1, 2] | None disease ratio [1, 3] | relationship of growth index with the concentration of chemotherapeutic agent (KPMM2 cells; fixed concentration of anti-human IL-6 receptor antibody, 0.1 or 1 ng/ml IL-6 (FIG. 1 to 6)) | life elongation effect as compared to the non-administration group ([1]; antibody single-drug administration, 1 mg per mouse on day 8 (FIG. 7)) | Life-elongation ratio* (%) [1, 4] [%] | Survival period [1, 4] | None disease ratio ([1]; hPM-1 1 mg per mouse on day 8, CMC control) | growth index (3H-thymidine incorporation, chemotherapeutic agent alone = 100) (KPMM2 cells)
1 | NC(Cc1ccc(N(CCCl)CCCl)cc1)C(=O)O (centres unmarked) [melphalan] | no life elongation effect | significant life elongation effect | 47.3 ± 3.1 | 101 | 84.1 ± 9.1 | 175 | 0/7 | 2/7 | decreased with the increase in melphalan concentration |  |  |  |  | 
2 | hPM-1: reshaped human PM-1 antibody: CDRs of mouse anti-IL-6 receptor antibody PM-1 grafted to human antibody, produced in CHO cells |  |  |  |  |  |  |  |  |  | no life elongation effect | 118 | 55.1 ± 5.2 | 0/7 | 33.9 and 28.4
